Where two headings read alike, the source gives them in different places.
Tests used:
[1] = target: T1, CGK2 (Homo sapiens, UniProt Q13237); assay: Off-chip Mobility Shift Assay (MSA method), kinase inhibition; format: biochemical; conditions: for inhibition at 0.1 µM: read-out: inhibition (%) CGK2
T1 sequence (Q13237 1-762): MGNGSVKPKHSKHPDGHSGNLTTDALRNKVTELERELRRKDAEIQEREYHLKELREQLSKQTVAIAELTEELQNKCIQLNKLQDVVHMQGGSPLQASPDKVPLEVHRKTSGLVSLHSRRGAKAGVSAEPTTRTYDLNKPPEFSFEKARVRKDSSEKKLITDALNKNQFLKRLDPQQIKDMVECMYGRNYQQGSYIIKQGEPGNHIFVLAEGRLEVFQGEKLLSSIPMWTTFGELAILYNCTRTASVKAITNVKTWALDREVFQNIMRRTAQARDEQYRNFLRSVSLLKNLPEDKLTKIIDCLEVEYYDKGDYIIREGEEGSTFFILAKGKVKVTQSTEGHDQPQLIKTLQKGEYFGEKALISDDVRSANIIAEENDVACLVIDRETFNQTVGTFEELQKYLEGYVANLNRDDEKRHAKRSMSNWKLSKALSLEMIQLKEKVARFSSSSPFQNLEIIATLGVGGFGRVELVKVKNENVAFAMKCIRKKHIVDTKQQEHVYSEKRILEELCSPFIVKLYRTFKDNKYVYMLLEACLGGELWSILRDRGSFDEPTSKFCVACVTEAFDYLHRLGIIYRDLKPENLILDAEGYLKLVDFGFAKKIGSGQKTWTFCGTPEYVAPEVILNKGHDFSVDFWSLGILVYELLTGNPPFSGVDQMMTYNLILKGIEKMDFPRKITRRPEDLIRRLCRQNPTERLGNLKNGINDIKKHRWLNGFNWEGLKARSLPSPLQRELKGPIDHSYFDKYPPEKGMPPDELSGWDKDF
Experimental: For compound k-1:B-1, inhibitory activity evaluation (calculation of 50% inhibitory concentration (IC50)) was performed on 8 kinds of kinases (CGK2, LATS2, MSK1, p70S6K, PKACα, PKACβ, SGK2, SGK3). The activity was measured using the Off-chip Mobility Shift Assay (MSA method) described below. The compound was added such that the test concentration of k-1:B-1 was in 10 steps from the final concentration of 10 μM to 0.3 nM.
As an analysis method of the data, the mean signal of the control well containing all reaction components was set to 0% inhibition, the mean signal without enzyme addition was set to 100% inhibition, and the inhibition rate was calculated from the mean signal of 2 wells of each test substance test. The IC50 value was obtained by approximating a plot based on the test substance concentration and inhibition rate to a 4 parameter logistics curve by using the Excel Solver add-in and by the non-linear least squares method.
(§1) 5 μL of k-1:B-1 solution at 4-fold concentration, 5 μL of substrate/ATP/metal solution at 4-fold concentration, and 10 μL of kinase solution at 2-fold concentration, each prepared with assay buffer (20 mM HEPES, 0.01% Triton X-100, 2 mM DTT, pH 7.5), were mixed in the wells of a polypropylene 384-well plate and reacted at room temperature for 1 or 5 hr. Successively, 70 μL of Termination Buffer (QuickScout Screening Assist MSA; Carna Biosciences) was added to discontinue the reaction. Then, the substrate peptide and the phosphorylated peptide in the reaction solution were separated and quantified by the LabChip system (Perkin Elmer). The kinase reaction was evaluated by the resultant product ratio (P/(P+S)) calculated from the substrate peptide peak height (S) and the phosphorylated peptide peak height (P).
For compounds k-1:H-7, k-1:H-1, k-1:D-1, k-1:J-1, and k-1:B-1, inhibitory rate at 100 nM was calculated on 8 kinds of kinases (CGK2, LATS2, MSK1, p70S6K, PKACα, PKACβ, SGK2, SGK3). The activity was measured using the MSA method. As an analysis method of the data, the mean signal of the control well containing all reaction components was set to 0% inhibition, the mean signal without enzyme addition was set to 100% inhibition, and the inhibition rate was calculated from the mean signal of 2 wells of each test substance test.
as §1, with “a compound” for “k-1:B-1”

[2] = tested on: mouse partial liver resection model; assay: Liver weight increase in mouse partial liver resection model; format: in vivo; conditions: 10 mg/kg intraperitoneally 4 times every 24 hr, about 30% of the liver removed, FIG. 2
Experimental: A partial liver resection model in which the mouse liver was partially resected was prepared as described below, and the liver weight increasing effect of the specific compound was evaluated by comparing the liver weight immediately after the resection with the liver weight 3 days after the resection.
A 0.5 w/v % methylcellulose aqueous solution (0.5% MC, manufactured by FUJIFILM Wako Pure Chemical Corporation) and k-1:B-1, k-1:J-1 were evaluated. k-1:B-1 and k-1:J-1 were suspended in 0.5% MC, and prepared at a final concentration of 1 mg/mL.
Mice, BALB/cAnNCrlCrlj, 5-week-old, male, were purchased from Charles River Laboratories, Japan. In terms of the 0.5% MC administration control group, 0.5% MC 10 mL/kg was administered intraperitoneally once, and 24 hr later, the entire liver was isolated and the liver weight was measured (n=5). […] After that, the abdomen was closed, and 24 hr after the final administration, the entire liver was removed and the liver weight was measured (n=4). In terms of the k-1:B-1 or k-1:J-1 administration-control group, k-1:B-1 or k-1:J-1 10 mg/kg, 10 mL/kg, was intraperitoneally administered once, and 24 hr later, the entire liver was isolated and the liver weight was measured (n=5). […] After that, the abdomen was closed, and 24 hr after the final administration, the entire liver was removed and the liver weight was measured (n=5).

Row | SMILES | inhibition at 0.1 µM ([1]; at 100 nM, MSA method) [%] | IC50 ([1]; MSA method, 10 steps from 10 μM to 0.3 nM) [µM] | inhibition at 0.1 µM [1] [%] | liver weight ratio after partial liver resection [2]
1 | CC/C(=N\NC(=O)CNc1cccc(O)c1)c1ccc(O)c(C)c1O [k-1:D-1] |  |  | 97.2 | 
2 | CC/C(=N\NC(=O)NCc1cccc(O)c1)c1ccc(O)c(C)c1O [k-1:J-1] |  |  | 51.3 | promoting recovery of the liver weight after excision

Now from value to compound, other results behind:

Row | inhibition at 0.1 µM ([1]; at 100 nM, MSA method) [%] | IC50 ([1]; MSA method, 10 steps from 10 μM to 0.3 nM) [µM] | SMILES | inhibition at 0.1 µM [1] [%] | liver weight ratio after partial liver resection [2]
3 | 80.8 |  | CCC(=NNC(=O)C(CC)Nc1ccccc1)c1ccc(O)c(C)c1O (centres unmarked) [k-1:H-7] |  | 
4 | 83.2 | 0.0299 | CC/C(=N\NC(=O)C(C)Nc1ccccc1)c1ccc(O)c(C)c1O (centres unmarked) [k-1:B-1] |  | promoting recovery of the liver weight after excision
5 | 77.6 |  | CCC(=NNC(=O)CNc1ccccc1)c1ccc(O)c(C)c1O [k-1:H-1] |  | 
